From ChEMBL document CHEMBL1201862, “PubChem BioAssay data set” (2004) come the findings set out here.

The source made the active and inactive calls. Non-standard residues stand in square brackets, D forms with d. Residues, ends and D or L forms follow the SMILES beside them. ξ: configuration not given here. *: point of attachment. ξF = NC(Cc1ccccc1)C(=O)O; Cbz = O=C(OCc1ccccc1)*

In general, AC50 refers to the midpoint of the concentration-response curve, whichever way the signal moves. What is called IC50 is the concentration at which inhibition is half-maximal.

For assay [1], the target named is Luciferin 4-monooxygenase (Photinus pyralis, UniProt P08659). Nature of the assay: firefly luciferase enzyme inhibitors, dose response, biochemical, luminescence (AID 1891).
Chain of Luciferin 4-monooxygenase (P08659 whole entry): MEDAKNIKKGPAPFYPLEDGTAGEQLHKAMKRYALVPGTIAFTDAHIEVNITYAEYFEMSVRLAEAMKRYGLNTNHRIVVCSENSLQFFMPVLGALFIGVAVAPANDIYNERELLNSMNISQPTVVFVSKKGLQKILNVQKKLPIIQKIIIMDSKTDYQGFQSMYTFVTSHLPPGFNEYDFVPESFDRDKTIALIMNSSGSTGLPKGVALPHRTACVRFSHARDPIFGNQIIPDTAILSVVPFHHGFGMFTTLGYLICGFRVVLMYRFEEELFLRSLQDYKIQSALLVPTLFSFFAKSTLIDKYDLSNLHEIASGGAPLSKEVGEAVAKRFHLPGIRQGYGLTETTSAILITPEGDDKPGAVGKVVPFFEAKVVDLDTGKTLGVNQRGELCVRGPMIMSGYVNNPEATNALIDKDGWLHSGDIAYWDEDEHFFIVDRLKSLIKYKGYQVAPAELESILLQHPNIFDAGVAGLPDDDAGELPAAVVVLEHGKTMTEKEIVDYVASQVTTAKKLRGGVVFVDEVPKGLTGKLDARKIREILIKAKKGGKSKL
A short description of assay [2]: Luminescence Cell-Based Dose Confirmation HTS to Identify Inhibitors of Platelet Dense Granule Release. [Related pubchem assays: 1663 (Primary HTS), 1678 (Summary of Project)]. In kind it is functional.
The nature of assay [3]: P. falciparum Dd2 growth inhibitors, dose response, SYBR Green, cherry-picked samples (AID 1159567). In kind it is functional, cell-based.
Assay [4] can be described thus: cells. In kind it is functional, cell-based.
Assay [5] can be described thus: cells. In kind it is functional, cell-based. This is another data set of the same source.
Assay [6] deals with T1, Ubiquitin-conjugating enzyme E2 N (Homo sapiens, UniProt P61088).
T1 sequence (P61088 whole entry): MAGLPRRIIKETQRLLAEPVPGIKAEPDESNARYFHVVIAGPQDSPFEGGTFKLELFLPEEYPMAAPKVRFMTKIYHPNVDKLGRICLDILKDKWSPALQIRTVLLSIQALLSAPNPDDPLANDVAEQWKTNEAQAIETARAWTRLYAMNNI
In kind it is functional.

A further assay concerns H9c2. Nature of the assay: cells. To be noted: Rattus norvegicus, H9c2, Myocardium. In kind it is functional, cell-based.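 Also: confirmatory concentration-response retest of ultra-high-throughput screening hits for modulation of myocardial damage; cell death induced by hydrogen peroxide oxidative stress; compound pretreatment for 60 min then peroxide exposure for 2 h; potency is for protecting the cells against peroxide damage rather than for killing them.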
For assay [7], the target named is T2, Corticotropin-releasing factor receptor 2/Corticotropin-releasing factor-binding protein (Homo sapiens, UniProt P24387+Q13324).
T2 sequence (Q13324 whole entry): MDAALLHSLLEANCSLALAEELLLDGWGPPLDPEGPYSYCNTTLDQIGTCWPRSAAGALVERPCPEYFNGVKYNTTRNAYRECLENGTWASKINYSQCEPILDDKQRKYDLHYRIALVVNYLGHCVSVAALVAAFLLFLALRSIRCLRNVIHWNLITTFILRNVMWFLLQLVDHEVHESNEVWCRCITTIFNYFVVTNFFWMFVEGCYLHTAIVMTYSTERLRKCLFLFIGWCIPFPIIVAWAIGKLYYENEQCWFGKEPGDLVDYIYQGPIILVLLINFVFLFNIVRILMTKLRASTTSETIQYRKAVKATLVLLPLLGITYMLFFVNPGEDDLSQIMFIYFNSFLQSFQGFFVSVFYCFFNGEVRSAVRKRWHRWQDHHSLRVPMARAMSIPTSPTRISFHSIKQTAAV
T2 sequence (P24387 whole entry): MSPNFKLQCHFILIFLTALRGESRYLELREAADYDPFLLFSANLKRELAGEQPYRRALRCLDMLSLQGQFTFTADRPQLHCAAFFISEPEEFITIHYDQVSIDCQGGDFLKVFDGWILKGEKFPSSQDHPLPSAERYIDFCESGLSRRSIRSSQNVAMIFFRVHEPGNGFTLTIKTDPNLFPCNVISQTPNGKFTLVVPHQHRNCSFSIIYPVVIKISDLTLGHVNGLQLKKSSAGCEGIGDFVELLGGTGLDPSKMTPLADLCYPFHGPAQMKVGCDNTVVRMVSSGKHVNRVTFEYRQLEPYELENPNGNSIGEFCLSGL
Nature of the assay: activators of CRF receptor 2 with binding protein – uHTS hits, confirmation (AID 602473). The note with it: read-out: EC50_Mean. In kind it is functional.

Assay [8] concerns the target T3, Heat shock factor protein 1 (Mus musculus, UniProt P38532).
T3 sequence (P38532 whole entry): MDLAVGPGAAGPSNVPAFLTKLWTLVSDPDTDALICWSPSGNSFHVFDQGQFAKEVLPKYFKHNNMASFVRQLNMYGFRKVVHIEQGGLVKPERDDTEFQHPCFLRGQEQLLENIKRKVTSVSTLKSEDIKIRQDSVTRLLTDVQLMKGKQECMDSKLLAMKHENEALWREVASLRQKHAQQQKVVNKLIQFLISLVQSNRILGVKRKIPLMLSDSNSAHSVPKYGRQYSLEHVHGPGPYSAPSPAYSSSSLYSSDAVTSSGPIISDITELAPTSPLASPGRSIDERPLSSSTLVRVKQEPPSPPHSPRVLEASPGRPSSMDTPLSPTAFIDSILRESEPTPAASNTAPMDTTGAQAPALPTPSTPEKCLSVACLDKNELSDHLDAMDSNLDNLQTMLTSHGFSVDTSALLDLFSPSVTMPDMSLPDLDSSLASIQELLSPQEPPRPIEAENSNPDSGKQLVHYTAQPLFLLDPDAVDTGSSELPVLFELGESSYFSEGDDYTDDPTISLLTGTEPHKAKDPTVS
The assay is described as follows: inhibition of MG132-induced HSE-luciferase signal, confirmation, cell-based, NIH3T3, luminescence, dose retest (AID 2382).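 Also: NIH3T3 fibroblasts with HSF1-driven luciferase reporter stressed by proteasome inhibitor MG132; luminescence from HSF1-driven luciferase expression after 8 hours of MG132 stress.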 In kind it is functional.

A further assay addresses Paired box protein Pax-8 (Homo sapiens, UniProt Q06710). Nature of the assay: inhibitors of PAX8-driven TPO luciferase reporter, dose response, RMG-I cells, cherry-pick (AID 687027).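 Also: luciferase reporter driven by Pax8 target thyroperoxidase promoter measured by SteadyGlo luminescence.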 In kind it is functional, cell-based. On the technique in general: In a reporter assay the amount or activity of a reporter protein is the signal.
The next assay deals with T4, Protein skinhead-1 (Caenorhabditis elegans, UniProt P34707).
T4 sequence (P34707 whole entry): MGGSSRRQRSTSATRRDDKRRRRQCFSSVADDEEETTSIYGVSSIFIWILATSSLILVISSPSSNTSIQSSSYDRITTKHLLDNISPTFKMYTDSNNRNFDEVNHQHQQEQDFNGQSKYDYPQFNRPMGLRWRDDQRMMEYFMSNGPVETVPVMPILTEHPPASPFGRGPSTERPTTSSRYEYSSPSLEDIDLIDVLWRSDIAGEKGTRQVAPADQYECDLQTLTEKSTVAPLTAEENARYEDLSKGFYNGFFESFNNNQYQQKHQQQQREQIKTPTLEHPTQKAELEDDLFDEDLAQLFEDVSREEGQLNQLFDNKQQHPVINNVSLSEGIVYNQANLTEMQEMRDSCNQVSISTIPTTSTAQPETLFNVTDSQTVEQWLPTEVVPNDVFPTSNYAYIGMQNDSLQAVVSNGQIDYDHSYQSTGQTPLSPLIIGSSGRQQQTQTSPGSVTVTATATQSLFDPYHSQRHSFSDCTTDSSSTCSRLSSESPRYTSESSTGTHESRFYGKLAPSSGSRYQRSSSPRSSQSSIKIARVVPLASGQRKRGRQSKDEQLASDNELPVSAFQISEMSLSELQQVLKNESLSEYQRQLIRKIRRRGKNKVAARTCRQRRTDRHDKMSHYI
In kind it is functional.

Assay [9] addresses T5, Rac GTPase-activating protein 1 (Homo sapiens, UniProt Q9H0H5).
T5 sequence (Q9H0H5 whole entry): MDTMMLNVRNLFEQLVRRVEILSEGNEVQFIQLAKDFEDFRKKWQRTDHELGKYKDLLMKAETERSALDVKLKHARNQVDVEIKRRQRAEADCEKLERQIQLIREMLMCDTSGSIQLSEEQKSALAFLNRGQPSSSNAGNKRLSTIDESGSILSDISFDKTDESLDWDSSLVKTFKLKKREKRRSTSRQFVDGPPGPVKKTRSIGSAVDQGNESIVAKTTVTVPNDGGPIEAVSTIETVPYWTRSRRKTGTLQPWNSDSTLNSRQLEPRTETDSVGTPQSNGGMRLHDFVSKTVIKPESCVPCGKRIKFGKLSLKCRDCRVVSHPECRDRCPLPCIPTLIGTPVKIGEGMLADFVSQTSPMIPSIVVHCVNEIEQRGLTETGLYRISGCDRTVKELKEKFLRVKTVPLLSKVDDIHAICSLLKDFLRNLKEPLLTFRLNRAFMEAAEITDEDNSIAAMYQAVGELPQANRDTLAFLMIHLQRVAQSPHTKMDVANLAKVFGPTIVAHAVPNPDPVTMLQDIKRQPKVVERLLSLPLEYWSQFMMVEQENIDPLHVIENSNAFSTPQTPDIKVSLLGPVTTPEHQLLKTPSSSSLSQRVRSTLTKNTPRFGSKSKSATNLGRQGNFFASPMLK
The assay is described as follows: MgcRacGAP GTPase-activating activity inhibitors, confirmation, biochemical, ADP Hunter fluorescence, primary and confirmatory (AID 624330). In kind it is functional.

Chain of Paired box protein Pax-8 (Q06710 whole entry): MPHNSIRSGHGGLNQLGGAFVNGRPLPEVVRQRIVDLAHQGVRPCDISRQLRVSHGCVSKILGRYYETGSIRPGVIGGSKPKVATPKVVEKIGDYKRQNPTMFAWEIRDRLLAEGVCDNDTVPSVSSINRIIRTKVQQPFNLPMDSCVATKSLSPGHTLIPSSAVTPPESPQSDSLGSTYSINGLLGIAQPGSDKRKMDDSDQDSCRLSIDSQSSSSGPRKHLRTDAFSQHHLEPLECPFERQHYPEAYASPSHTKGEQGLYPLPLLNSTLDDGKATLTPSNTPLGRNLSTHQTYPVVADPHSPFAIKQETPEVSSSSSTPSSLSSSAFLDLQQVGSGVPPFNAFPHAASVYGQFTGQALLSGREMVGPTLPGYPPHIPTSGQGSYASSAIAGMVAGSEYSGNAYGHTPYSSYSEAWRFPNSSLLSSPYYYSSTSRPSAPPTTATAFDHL

In the case of `CCc1nnc(NC(=O)[C@@H](NC(=O)c2ccc(OC)cc2)C(C)C)s1`, the EC50 in assay [1] and in assay [2] was > 112 µM (not active) throughout.

Consider `COc1ccc2c3c([nH]c2c1)[C@H](CO)N(Cc1ccccc1F)CC31CN(C(=O)C2CCCC2)C1`, for which the AC50 in assay [3] was 9.56 µM (active).

For `CN(CC(=O)Nc1ccccc1Oc1ccccc1)Cc1ccccc1F`, the EC50 in the assay “cells [4]” and in “cells [5]” was > 350 µM (not active) throughout.

`COc1cc2c(cc1OC)C(c1ccccc1)N(S(C)(=O)=O)CC2` (stereo not given): the EC50 in the assay “cells [4]” and in “cells [5]” was > 350 µM (not active) each time.

Regarding `CO[C@@H]1CN(C)C(=O)c2ccc(NC(=O)C3CCC3)cc2OC[C@@H](C)N(CC2CCCCC2)C[C@H]1C`, the half-maximal activity concentration (AC50) in assay [3] was 4.4 µM (active).

On to `Cc1ccc2cc(CN(Cc3ccco3)C(=O)C3CCCCC3)c(O)nc2c1C`, for which the EC50 in assay [1] and in assay [2] was > 112 µM (not active) throughout.

As for `CCOc1ccc(-c2nc(CCl)cs2)cc1`, the EC50 in assay [1] was 40.7 µM (active); in assay [2], > 112 µM (not active).

With `CCOC(=O)c1cc(-c2ccccc2)nc2ccc(C)cc12` [NEOCINCHOPHEN], the IC50 in [6] is > 20 µM (inactive).

Turning to `COC(=O)Cc1cc(O)nc(Nc2nc3ccccc3o2)n1`, the IC50 in [6] was > 20 µM (inactive).

As to `CC(C)N(c1ccccc1)c1ncnc(NCCC(=O)O)c1[N+](=O)[O-]`, the EC50 in the assay “cells [4]” and in “cells [5]” was > 350 µM (not active) throughout.

As to `CN1CCCCN2[C@@H](CO)[C@@H](c3ccc(-c4cccnc4)cc3)[C@@H]2C1`, the concentration at half-maximal activity (AC50) in assay [3] is 6.76 µM (active).

For the molecule `O=C(c1ccccc1)c1ccc2nc(N3CCN(C(=O)c4ccco4)CC3)c3nncn3c2c1`, the IC50 in the assay with H9c2 is > 79 µM (inactive).

As to `N#Cc1ccc(-c2ccc([C@@H]3[C@@H]4CN(S(=O)(=O)Cc5ccccc5)C[C@H]3N4)cc2)cc1`, in assay [3], the AC50 is 6.48 µM (active).

On to `CCCCn1/c(=N/C(=O)c2cccnc2)c(C#N)cc2c(=O)n3cccc(C)c3nc21`, for which the IC50 in the assay with H9c2 was 26.2 µM (active). Also, the EC50 in assay [7] was > 53 µM (inactive).

Consider `Cc1cccc(NC(=O)c2ccc(NCCO)c([N+](=O)[O-])c2)n1`, for which the EC50 was > 112 µM (not active) in assay [1] and 25.5 µM (active) in assay [2].

`COc1ccc(NC(=O)Nc2ccc3c(c2)CC(=O)N([C@@H](C)CO)C[C@@H](C)[C@H](CN(C)CC2CCCCC2)O3)cc1`: in assay [3], the AC50 is 4.85 µM (active).

`Cc1ccc(-c2csc(NC(=O)C[n+]3cc(-c4ccc(C)cc4)n4c3CCC4)n2)cc1`: the IC50 in assay [6] was > 20 µM (inactive).

As for `CCOC(=O)C(Cc1ccccc1)NC(=O)CNC(=O)CNC(=O)OCc1ccccc1` (stereo not drawn) (Cbz-Gly-Gly-[ξF]-OEt), the figures for the EC50 in assay [1] and in assay [2] were > 112 µM (not active) and 25 µM (active), respectively.

On to `COc1cccc(CNC(=O)c2cc(S(=O)(=O)N3CCOCC3)cn2C)c1`, for which the EC50 in [1] and in assay [2] was > 112 µM (not active) in each case.

On to `COc1ccc(CN2CCNC(=O)C2CC(=O)NC2CCCC2)c(OC)c1` (stereo not given), for which the EC50 in “cells [4]” and in the assay “cells [5]” was > 350 µM (not active) throughout.

As for `CC1CN(c2nn3c(=O)c4ccccc4nc3c3ccccc23)CC(C)O1` (stereo not given), the IC50 in the assay with H9c2 was > 79 µM (inactive).

For `NC(=O)c1nsc(C(=O)N(c2cccc(F)c2)C(C(=O)NC2CCCC2)c2ccco2)c1N` (stereo not given), the EC50 in assay [8] is recorded as > 195 µM (not active). Also, the IC50 in assay [6] is > 20 µM (inactive).

In the case of `O=C1NC(=O)/C(=C/c2ccc(OS(=O)(=O)c3ccc(F)cc3F)cc2)N1`, the EC50 in the assay “cells [4]” and in the assay “cells [5]” was > 350 µM (not active) throughout.

For the molecule `CN(C)N(Cc1ccccc1)C(=O)C(O)(c1ccccc1)c1ccccc1`, the IC50 with H9c2 was > 79 µM (inactive).

Regarding `CCOC(=O)C1(Cc2cccc(OC)c2)CCN(CC=C(C)C)CC1`, the EC50 in assay [1] is > 112 µM (not active); in [2], 21.4 µM (active).

Regarding `C[C@H]1CN([C@@H](C)CO)C(=O)Cc2cc(NC(=O)Nc3ccc(C(F)(F)F)cc3)ccc2O[C@H]1CN(C)C(=O)NC1CCCCC1`, the AC50 on Paired box protein Pax-8 is 10.2 µM (active).

Regarding `CC(C)(C)OC(=O)NCC12C=CC(O1)C1C(=O)N(Cc3ccccc3)C(=O)C12` (stereo not given), the values for the IC50 in the assay with H9c2 and on Protein skinhead-1 were > 79 µM (inactive) and > 100 µM (inactive), respectively.

As for `CCOC(=O)C1CCN(c2ncnc3cc(OC)c(OC)cc23)CC1`, the EC50 in [1] is > 112 µM (not active); in [2] it was 9.14 µM (active).

As for `O=S(=O)(c1cccc(F)c1)N1CCN(c2nc(-c3cccnc3)nc3ccccc23)CC1`, the IC50 in the assay on H9c2 was > 79 µM (inactive).

For `O=C(Cn1[nH]c(=O)c2ccccc2c1=O)OCC(=O)N1CCCc2ccccc21`, the IC50 in the assay with H9c2 is > 79 µM (inactive).

For the molecule `Cc1cc(Br)cc(/C=N/c2ccc(N3CCOCC3)cc2)c1O`, the IC50 was 19.7 µM (active) in the assay on H9c2 and 14.6 µM (active) in assay [9].

`Cc1cccc(C)c1NC(=O)C1CCCN1S(=O)(=O)c1ccc(-c2ccc(O)nn2)s1` (stereo not given): the figures for the EC50 in assay [1] and in assay [2] were > 112 µM (not active) and 47.1 µM (active), respectively.
